The results in this text go back to patent US20230414626A1, “INDUCTION OF FERROPTOSIS FOR CANCER THERAPY” (Memorial Sloan Kettering Cancer Center, priority 2020, published 2023).

For the assay, the system named is PTEN-defective PC-3 prostate cancer xenograft tumors. In words: In vivo xenograft mouse model, PC-3. The settings on record: PC-3 xenograft, nu/nu mice; IKE 50 mg/kg daily i.p.; CCI-779 2 mg/kg daily i.p. Here is the method: FIG. 6 A-F. Combination of mTORC1 inhibition with ferroptosis induction leads to tumor regression in vivo. (A) CRISPR/Cas9-mediated, Dox-induced GPX4 knockout (GPX4-iKO) in BT474 cells, monitored by western blot. (B) Images of resected tumors from mice xenografted with GPX4-iKO BT474 cells. Groups of mice were treated with CCI-779 and/or Dox as indicated (n=6 per group). See Methods for detail. (C) Representative haematoxylin and eosin (H&E) and immunostaining images of GPX4, Ki67, PTGS2 and pS235/236 S6, all counterstained with haematoxylin (blue), are shown from sections of xenografted tumors. Scale bar, 50 μm. (D) Growth curves of BT474 tumors of each group. Data are plotted as mean±s.d., n=6, on the linear scale for actual tumor size (upper panel) or the log 2 scale for the fold change of tumors (bottom panel). (E) Growth curves of PC-3 tumors of each group (n=6), on the linear scale for actual tumor size (upper panel) or the log 2 scale for the fold change of tumor size (bottom panel). […]
FIG. 13 A-E. Combination of mTORC1 inhibition with ferroptosis induction leads to tumor regression. […] (B) BT474 tumor volume was measured every day for each mouse. […] (E) PC-3 tumor volume was measured every day for each mouse. […]
For PC-3 tumor models, male athymic nu/nu mice aged 5 to 6 weeks were injected in the right flank with 5×10^6 PC-3 cells. Tumors were measured with callipers daily. […]

SMILES strings stand for the structures.

Consider `CC(C)Oc1ccc(C(=O)Cn2ccnc2)cc1-n1c(CN2CCN(C(=O)COc3ccc(Cl)cc3)CC2)nc2ccccc2c1=O` [IKE, imidazole ketone erastin], for which the tumor growth result is “no effects on tumor growth”.
